Source: publication PMC6792352, “Limited Chemical Structural Diversity Found to Modulate Thyroid Hormone Receptor in the Tox21 Chemical Library” (Environmental Health Perspectives, 2019)
Structures can show the parent of a compound that is named as a salt.

Experiment: in vitro
Conditions: rat, gh3-tre-luc cells, AC50 (uM) modified / 1000

Cc1ccc(C)o1 [2,5-Dimethylfuran] and Cc1ccc(S(=O)(=O)O)cc1C [Sodium xylenesulfonate] cannot be ordered by CC50 at 24 h: over 90 µM for the first, over 90 µM for the second.

CC1(C)S[C@@H]2[C@H](N)C(=O)N2[C@H]1C(=O)O [6-Aminopenicillanic acid] and CC1(C)S[C@@H]2[C@H](NC(=O)[C@H](NC(=O)N3CCNC3=O)c3ccccc3)C(=O)N2[C@H]1C(=O)O [Azlocillin sodium] cannot be ordered by CC50 at 24 h: over 20 µM for the first, over 20 µM for the second.

N=C(N)NC(=O)c1nc(Cl)c(N)nc1N [Amiloride hydrochloride] and Cc1ccc2c(n1)Oc1ccc(C(C)C(=O)OCC(=O)N(C)C)cc1C2 (stereo not drawn) [Mepranoprofen arbamel] cannot be ordered by CC50 at 24 h: over 90 µM for the first, over 50 µM for the second.

CC(C)(C)C1=CC(=O)C=C(C(C)(C)C)C1=O [2,6-Bis-(1,1-dimethylethyl)-2,5-cyclohexadiene-1,4-dione] and CC(C)(C)c1ccc(CCC=O)cc1 [3-(4-tert-Butylphenyl)propanal] cannot be ordered by CC50 at 24 h: over 90 µM for the first, over 90 µM for the second.

CC(=O)CC(C)C [4-Methyl-2-pentanone] and CC(=O)CCC=C(C)C [6-Methyl-5-hepten-2-one] cannot be ordered by CC50 at 24 h: over 90 µM for the first, over 90 µM for the second.

Cc1nc(-c2ccc(OCC(C)C)c(C#N)c2)sc1C(=O)O [Febuxostat] and COc1ccc(-c2noc(CC(=O)O)c2-c2ccc(OC)cc2)cc1 [Mofezolac] cannot be ordered by CC50 at 24 h: over 50 µM for the first, over 50 µM for the second.

Going from Nc1ccc2cc3ccccc3cc2c1 [2-Aminoanthracene] to Nc1ccccc1Nc1ccccc1 [2-Aminodiphenylamine], the CC50 at 24 h falls from over 90 µM to 14.7 µM.

O=CNC(N1CCN(C(NC=O)C(Cl)(Cl)Cl)CC1)C(Cl)(Cl)Cl (stereo not drawn) [Triforine] and CC(C)(C)C1CCC(=O)CC1 [4-tert-Butylcyclohexanone] cannot be ordered by CC50 at 24 h: over 90 µM for the first, over 90 µM for the second.

CCC(=O)c1c(O)cc(O)cc1O [Flopropione] and O=C(O)c1ccc(O)c(O)c1 [3,4-Dihydroxybenzoic acid] cannot be ordered by CC50 at 24 h: over 50 µM for the first, over 90 µM for the second.

C[C@]12C=CC(=O)C=C1CC[C@@H]1[C@@H]2[C@@H](O)C[C@@]2(C)[C@H]1CC[C@]2(O)C(=O)COC(=O)CCC(=O)O [Prednisolone 21-hemisuccinate] and CC(=O)OCC(=O)[C@@]1(O)CC[C@H]2[C@@H]3CCC4=CC(=O)CC[C@]4(C)C3=CC[C@@]21C [Anecortave acetate] cannot be ordered by CC50 at 24 h: over 50 µM for the first, over 50 µM for the second.

CC(O)CNCC(C)O (stereo not drawn) [Diisopropanolamine] and COC(=O)CCC(=O)OC [Dimethyl succinate] cannot be ordered by CC50 at 24 h: over 90 µM for the first, over 90 µM for the second.

CC(C)N(C)C [Dimethylisopropylamine] and Cc1ccc(N(C)C)cc1 [N,N,4-Trimethylaniline] cannot be ordered by CC50 at 24 h: over 90 µM for the first, over 90 µM for the second.

CN1C(=O)c2ccc([N+](=O)[O-])cc2C1=O [N-Methyl-4-nitrophthalimide] and CC(=O)CC(c1ccc([N+](=O)[O-])cc1)c1c(O)c2ccccc2oc1=O (stereo not drawn) [Acenocoumarol] cannot be ordered by CC50 at 24 h: over 90 µM for the first, over 20 µM for the second.

Compared with C/C(=C\c1csc(C)n1)[C@@H]1C[C@@H]2O[C@]2(C)CCC[C@H](C)[C@H](O)[C@@H](C)C(=O)C(C)(C)[C@@H](O)CC(=O)O1 [Epothilone B], CC[C@H]1OC(=O)[C@H](C)[C@@H](O[C@H]2C[C@@](C)(OC)[C@@H](O)[C@H](C)O2)[C@H](C)[C@@H](O[C@@H]2O[C@H](C)C[C@H](N(C)C)[C@H]2O)[C@](C)(OC)C[C@@H](C)C(=O)[C@H](C)[C@@H](O)[C@]1(C)O [Clarithromycin] is higher in CC50 at 24 h: 0.00955 µM for the first, over 90 µM for the second.

O=C(O)c1cc(O)c2ccccc2c1O [1,4-Dihydroxy-2-naphthoic acid] and Cc1cc(O)ccc1O [Methylhydroquinone] are within 1.5-fold of each other in CC50 at 24 h: 12.2 µM for the first, 14.8 µM for the second.

N#CCCCl [3-Chloropropionitrile] and N#CCc1ccccc1 [Benzyl cyanide] cannot be ordered by CC50 at 24 h: over 90 µM for the first, over 90 µM for the second.

CC(=O)NNC(C)=O [Diacetyl hydrazine] and CC(=O)Nc1ccc(C)cc1 [N-Acetyl-p-toluidine] cannot be ordered by CC50 at 24 h: over 90 µM for the first, over 90 µM for the second.

N#Cc1ccccn1 [2-Pyridinecarbonitrile] and c1ccc(-c2nnn[nH]2)cc1 [5-Phenyl-1H-tetrazole] cannot be ordered by CC50 at 24 h: over 100 µM for the first, over 90 µM for the second.

Going from C[C@@H]1CN(CCCn2c3ccccc3c3ccccc32)C[C@H](C)N1 [Rimcazole dihydrochloride] to c1ccc2c(c1)Sc1ccccc1N2CCN1CCCC1 [Pyrathiazine], the CC50 at 24 h rises from 7.99 µM to 19.5 µM (2.4-fold).

NCC1CCCC(CN)C1 (stereo not drawn) [1,3-Cyclohexanedimethanamine] and OCC1CC2CC1C1CCC(CO)C21 (stereo not drawn) [Tricyclodecanedimethanol] cannot be ordered by CC50 at 24 h: over 90 µM for the first, over 90 µM for the second.

CC(C)CCCCCCCCCCCCCCC(=O)O [Isooctadecanoic acid] and CCCCCCCCCCl [1-Chlorononane] cannot be ordered by CC50 at 24 h: over 90 µM for the first, over 90 µM for the second.

OC1CCCCC1c1ccccc1 (stereo not drawn) [2-Phenylcyclohexanol] and CCC(=O)OCc1ccccc1 [Benzyl propanoate] cannot be ordered by CC50 at 24 h: over 90 µM for the first, over 90 µM for the second.

CC[C@@H]1C(=O)OC[C@@H]1Cc1cncn1C [Pilocarpine] and O=c1[nH]c(=O)n([C@H]2C[C@H](O)[C@@H](CO)O2)cc1F [Floxuridine] cannot be ordered by CC50 at 24 h: over 50 µM for the first, over 50 µM for the second.

CCOc1ccc(C(C)(C)COCc2cccc(Oc3ccccc3)c2)cc1 [Etofenprox] and c1ccc(Cc2ccccc2)cc1 [Diphenylmethane] cannot be ordered by CC50 at 24 h: over 90 µM for the first, over 90 µM for the second.

C=CC(C)(C)C [3,3-Dimethyl-1-butene] and C=C[Si](C)(C=C)O[Si](C)(C)C [Divinyltetramethyldisiloxane] cannot be ordered by CC50 at 24 h: over 90 µM for the first, over 90 µM for the second.

C=CCCCCCCCCO [9-Decen-1-ol] and C=CC(=C)CCC=C(C)C [Myrcene] cannot be ordered by CC50 at 24 h: over 90 µM for the first, over 90 µM for the second.

CCOC(=O)c1ccccc1C(=O)OCC [Diethyl phthalate] and CCCOc1cc(N)ccc1C(=O)OCCN(CC)CC [Propoxycaine hydrochloride] cannot be ordered by CC50 at 24 h: over 90 µM for the first, over 20 µM for the second.

COc1ccc(CN2CCNCC2)c(OC)c1OC [Trimetazidine dihydrochloride] and COC(=O)c1ccc2cc(C(=O)OC)ccc2c1 [Dimethyl 2,6-naphthalenedicarboxylate] cannot be ordered by CC50 at 24 h: over 20 µM for the first, over 20 µM for the second.

c1ccc(CNCc2ccccc2)cc1 [Dibenzylamine] and CC(C)(O)CCc1ccccc1 [2-Methyl-4-phenylbutan-2-ol] cannot be ordered by CC50 at 24 h: over 90 µM for the first, over 90 µM for the second.

Compared with C/C(=N\C#N)N(C)Cc1ccc(Cl)nc1 [Acetamiprid], NC[C@H](O)c1ccc(O)c(O)c1 [Norepinephrine] is lower in CC50 at 24 h: over 90 µM for the first, 57.7 µM for the second.

CCCCCC(C)N (stereo not drawn) [2-Aminoheptane sulfate] and CC/C=C\CCOC(C)OCC (stereo not drawn) [Acetaldehyde ethyl cis-3-hexenyl acetal] cannot be ordered by CC50 at 24 h: over 50 µM for the first, over 70 µM for the second.

CCCCCCCCCCCCSCCOCCOCCOCCOCCOCCOCCOCCOCCOCCO [Laureth 10s] and NCCCC(N)(C(=O)O)C(F)F (stereo not drawn) [Eflornithine hydrochloride] cannot be ordered by CC50 at 24 h: over 50 µM for the first, over 50 µM for the second.

C[C@]12CCC(=O)C=C1C=C[C@@H]1[C@@H]2CC[C@@]2(C)[C@H]1CC[C@@]21CCC(=O)O1 [Canrenone] and CC1=C2[C@H](/C=C(\C)C(=O)O)CC[C@@H](C)[C@H]2CC1 [Valerenic acid] cannot be ordered by CC50 at 24 h: over 50 µM for the first, over 100 µM for the second.

Going from CN(C)c1ccc(C2(c3ccc(N(C)C)cc3)OC(=O)c3cc(N(C)C)ccc32)cc1 [Crystal Violet lactone] to Oc1cc2c(cc1O)[C@@H]1c3ccc(O)c(O)c3OC[C@]1(O)C2 [Hematoxylin], the CC50 at 24 h falls from over 90 µM to 69.9 µM.

C=C(C)C1CCC(C)(O)CC1 (stereo not drawn) [beta-Terpineol] and CC(C#N)(CCC(=O)O)N=NC(C)(C#N)CCC(=O)O (stereo not drawn) [4,4'-Diazene-1,2-diylbis(4-cyanopentanoic acid)] cannot be ordered by CC50 at 24 h: over 90 µM for the first, over 90 µM for the second.

COC(=O)c1c(C)cc(O)c(C)c1O [Methyl 2,4-dihydroxy-3,6-dimethylbenzoate] and O=C(NCCO[N+](=O)[O-])c1cccnc1 [Nicorandil] cannot be ordered by CC50 at 24 h: over 90 µM for the first, over 50 µM for the second.

Molecule NC(Cc1ccc(F)cc1)C(=O)O (racemic) [4-Fluoro-dl-phenylalanine] has a CC50 at 24 h of 2.98 µM.

Same assay, conditions: rat, gh3-tre-luc cells, AC50 (uM) modified / 1000, Tox21_110001=Tox21_111290; viability, 1 nM T3 present, 24 h

CCOP(=S)(OCC)Oc1ccc2c(C)c(Cl)c(=O)oc2c1 [Coumaphos] gave a CC50 at 24 h of over 50 µM.

Same assay, conditions: rat, gh3-tre-luc cells, AC50 (uM) modified / 1000, Tox21_110001=Tox21_113077; viability, 1 nM T3 present, 24 h

For CNC(C)CC1CCCCC1 (racemic) [(+/-) Propylhexedrine], the CC50 at 24 h was over 50 µM.

Same assay, conditions: rat, gh3-tre-luc cells, AC50 (uM) modified / 1000, Tox21_110001=Tox21_113307; viability, 1 nM T3 present, 24 h

In the case of CCCOC(=O)Cc1ccc(OCC(=O)N(CC)CC)c(OC)c1 [Propanidid], the CC50 at 24 h is reported as over 50 µM.

Same assay, conditions: rat, gh3-tre-luc cells, AC50 (uM) modified / 1000, Tox21_110001=Tox21_200074; viability, 1 nM T3 present, 24 h

For ClC(Cl)C(Cl)Cl [1,1,2,2-Tetrachloroethane], the CC50 at 24 h was over 90 µM.

Same assay, conditions: rat, gh3-tre-luc cells, AC50 (uM) modified / 1000, Tox21_110001=Tox21_200235; viability, 1 nM T3 present, 24 h

For Cl/C=C/CCl [1,3-Dichloropropene], the CC50 at 24 h was over 90 µM.

Same assay, conditions: rat, gh3-tre-luc cells, AC50 (uM) modified / 1000, Tox21_110001=Tox21_201841; viability, 1 nM T3 present, 24 h

CCOP(=S)(OCC)Oc1ccc2c(C)c(Cl)c(=O)oc2c1 [Coumaphos] gave a CC50 at 24 h of over 90 µM.

Same assay, conditions: rat, gh3-tre-luc cells, AC50 (uM) modified / 1000, Tox21_110001=Tox21_202075; viability, 1 nM T3 present, 24 h

Work on O=C(CCl)c1ccccc1 [2-Chloroacetophenone] yielded a CC50 at 24 h of over 90 µM.

Same assay, conditions: rat, gh3-tre-luc cells, AC50 (uM) modified / 1000, Tox21_110001=Tox21_300045; viability, 1 nM T3 present, 24 h

For O=C(CCl)c1ccccc1 [2-Chloroacetophenone], the CC50 at 24 h was 62.3 µM.

Same assay, conditions: rat, gh3-tre-luc cells, AC50 (uM) modified / 1000, Tox21_110001=Tox21_301423; viability, 1 nM T3 present, 24 h

With CNC(=O)Oc1ccc(N(C)C)c(C)c1 [Aminocarb] the CC50 at 24 h was over 90 µM.

Same assay, conditions: rat, gh3-tre-luc cells, AC50 (uM) modified / 1000, Tox21_110001=Tox21_301598; viability, 1 nM T3 present, 24 h

In the case of CC(=O)/C=C/c1ccccc1 [Methyl trans-styryl ketone], the CC50 at 24 h is reported as over 90 µM.

Same assay, conditions: rat, gh3-tre-luc cells, AC50 (uM) modified / 1000, Tox21_110001=Tox21_400056; viability, 1 nM T3 present, 24 h

For O=[N+]([O-])c1cc([N+](=O)[O-])c2ccccc2c1 [1,3-Dinitronaphthalene], the CC50 at 24 h was over 90 µM.
